Experimental data reported in ChEMBL document CHEMBL2380275, “Synthesis of new heterocyclic hybrids based on pyrazole and thiazolidinone scaffolds as potent inhibitors of tyrosinase” (Bioorg Med Chem, 2013).
pIC50, pKi: −log10 of the molar value. Activity calls are given as the source filed them. The rule behind the calls is not given here.

Assays:
[1] = target: T1, Tyrosinase (Agaricus bisporus) (UniProt O42713); experiment: Inhibition of mushroom tyrosinase using L-DOPA as substrate at 200 uM preincubated for 10 mins by spectrophotometric analysis relative to control
T1 sequence (whole entry): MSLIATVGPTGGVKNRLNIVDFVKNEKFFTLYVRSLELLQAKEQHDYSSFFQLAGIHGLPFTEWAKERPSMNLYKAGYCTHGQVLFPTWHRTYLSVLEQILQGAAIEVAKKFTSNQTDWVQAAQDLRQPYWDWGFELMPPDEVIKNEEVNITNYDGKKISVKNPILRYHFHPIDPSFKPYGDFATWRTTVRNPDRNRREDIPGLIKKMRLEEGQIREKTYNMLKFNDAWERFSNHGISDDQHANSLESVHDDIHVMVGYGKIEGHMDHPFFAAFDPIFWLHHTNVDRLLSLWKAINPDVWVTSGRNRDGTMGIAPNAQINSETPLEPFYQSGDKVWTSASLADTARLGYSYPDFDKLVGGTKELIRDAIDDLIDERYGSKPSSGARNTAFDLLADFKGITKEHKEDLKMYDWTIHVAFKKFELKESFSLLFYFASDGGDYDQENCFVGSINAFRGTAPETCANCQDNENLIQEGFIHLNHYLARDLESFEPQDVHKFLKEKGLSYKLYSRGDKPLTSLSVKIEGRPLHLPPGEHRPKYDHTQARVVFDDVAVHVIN

Tyrosinase [2] = target: T2, Tyrosinase (Agaricus bisporus, UniProt O42713)
T2 sequence (O42713 whole entry): T1 sequence (whole entry)
Description: Competitive inhibition of mushroom tyrosinase diphenolase activity assessed as L-DOPA conversion to dopachrome by Lineweaver-Burk plot analysis

Tyrosinase [3] = target: T2, Tyrosinase; experiment: Inhibition of mushroom tyrosinase using L-DOPA as substrate preincubated for 10 mins by spectrophotometric analysis
[4] = target: T1, Tyrosinase (Agaricus bisporus); experiment: Reversible inhibition of mushroom tyrosinase diphenolase activity assessed as L-DOPA conversion to dopachrome by Lineweaver-Burk plot analysis

inhibition [1] | pKi (Tyrosinase [2]) | pIC50 (Tyrosinase [3]) | inhibition [4] | SMILES
13.5% |  | 3.71 |  | COc1ccc(NC2=NC(=O)/C(=C/c3cn(-c4ccccc4)nc3-c3ccc(C)cc3)S2)c(OC)c1
87.9% | 5.02 | 3.88 |  | COc1ccc(NC2=NC(=O)/C(=C/c3cn(-c4ccccc4)nc3-c3ccc(Br)cc3)S2)c(OC)c1
8.03% |  |  |  | COc1ccc(NC2=NC(=O)/C(=C/c3cn(-c4ccccc4)nc3-c3ccccc3)S2)c(OC)c1

Continued, compound first:

SMILES | inhibition [1] | pKi (Tyrosinase [2]) | pIC50 (Tyrosinase [3]) | inhibition [4]
COc1ccc(NC2=NC(=O)/C(=C/c3cn(-c4ccccc4)nc3-c3ccc(F)cc3)S2)c(OC)c1 | 54.2% | 5.14 | 3.98 | 
COc1ccc(NC2=NC(=O)/C(=C/c3cn(-c4ccccc4)nc3-c3ccccc3Cl)S2)c(OC)c1 | 126% | 4.54 | 4.47 | Active
COc1ccc(NC2=NC(=O)/C(=C/c3cn(-c4ccccc4)nc3-c3cccc(Cl)c3)S2)c(OC)c1 | 110% | 4.67 | 4.28 | Active
COc1ccc(NC2=NC(=O)/C(=C/c3cn(-c4ccccc4)nc3-c3ccc(Cl)cc3Cl)S2)c(OC)c1 | 52% | 4.77 | 4.09 | 
COc1ccc(NC2=NC(=O)/C(=C/c3cn(-c4ccccc4)nc3-c3ccc(Cl)cc3)S2)c(OC)c1 | 38% | 5.24 | 4.13 | 
COc1ccc(-c2nn(-c3ccccc3)cc2/C=C2\SC(Nc3ccc(OC)cc3OC)=NC2=O)cc1 | 46.8% |  | 3.94 | 
